“Also recorded” adds a separate entry of the source.
Experiments:
[1] = tested on: GluR1 S831 and GluR1 S845; assay: AMPAR GluR1 subunit phosphorylation in hippocampus after post-seizure AMPAR antagonist treatment in vivo; set-up: species or system rat; conditions: for GluR1 S845 phosphorylation: 12 hours after hypoxia-induced seizures; for GluR1 S845 phosphorylation / GluR1 S831 phosphorylation: single systemic dose within 30 minutes after seizures, vs vehicle; for GluR1 S831 phosphorylation: 12 hours after hypoxic seizures; for GluR1 subunit phosphorylation: post-treatment during the early period after seizure induction
Text: The strength of synaptic transmission in intact neuronal networks, such as in LTP, can be regulated by altered AMPAR function mediated by phosphorylation of GluR1 S831 and GluR1 S845 (Barria et al., 1997; Lee et al., 2000; Lee et al., 2003).
(§1) To determine whether seizure-induced activation of AMPAR plays a critical role in the alterations in EPSCs and subunits reported here, we examined whether pharmacologic inhibition of AMPARs in vivo following hypoxic seizures leads to a decrease in the activity of Ca^2+ dependent protein kinases and GluR1 subunit phosphorylation state. […] Within 30 minutes after hypoxic seizures, rats were treated with a single dose of systemically administered AMPAR antagonists NBQX (20 mg/kg), topiramate (30 mg/kg) or GYKI-53773 (7.5 mg/kg), and compared to vehicle-treated (0.1 ml PBS) hypoxic controls and normoxic littermates.

CaMKII = CaMKII activity (ELISA) after hypoxic seizures and in vivo AMPAR antagonist treatment; conditions: 1 hour following hypoxic seizures; in vivo administration vs vehicle
Procedure: (§2) Protein kinase A (PKA) […] mediates the phosphorylation of GluR1 S845 and protein kinase C (PKC) is involved in the phosphorylation of both GluR1 S831 (Kameyama et al., 1998; Mammen et al., 1997) and GluR2 S880 (Seidenman et al., 2003). […] Similarly, CaMKII activity increased at 1 hour post-seizures before returning to baseline levels at 6 hours post-hypoxia. […] The rapid seizure-induced activation of these protein kinases are occurring coincident with the alterations in phosphorylation state of their known substrates, GluR1 S831, GluR1 S845, and GluR2 S880.
as §1, with “littermates. These treatment doses are the same as the treatment paradigm in which we previously observed an attenuation of long-term epileptogenic changes (Koh et al., 2004). […] Importantly, blockade of AMPAR-mediated neurotransmission is the common mechanistic feature of these three structurally unrelated compounds and may represent the potential mode of mediating alterations.” for “littermates.”

PKA = PKA activity (ELISA) after hypoxic seizures and in vivo AMPAR antagonist treatment; set-up: species or system rat; conditions: 1 hour following hypoxic seizures; vs vehicle
Procedure: as §2
as §1, with “littermates. These treatment doses are the same as the treatment paradigm in which we previously observed an attenuation of long-term epileptogenic changes (Koh et al., 2004). […] Importantly, blockade of AMPAR-mediated neurotransmission is the common mechanistic feature of these three structurally unrelated compounds and may represent the potential mode of mediating alterations.” for “littermates.”

PKC = PKC activity (ELISA) after hypoxic seizures and in vivo AMPAR antagonist treatment; set-up: species or system rat; conditions: 6 hours post-hypoxic seizures; vs vehicle
Procedure: as §2
as §1, with “littermates. These treatment doses are the same as the treatment paradigm in which we previously observed an attenuation of long-term epileptogenic changes (Koh et al., 2004). […] Importantly, blockade of AMPAR-mediated neurotransmission is the common mechanistic feature of these three structurally unrelated compounds and may represent the potential mode of mediating alterations.” for “littermates.”

[2] = tested on: AMPAR-mediated sEPSCs in CA1 neurons; assay: AMPAR-mediated sEPSCs in ex vivo hippocampal slices after post-seizure treatment in vivo; set-up: species or system rat; conditions: for sEPSC amplitude / sEPSC frequency: hippocampal slices prepared 1 hour after administration post hypoxic seizure, vs vehicle; for acute and subacute enhancement in AMPAR EPSCs: post-treatment during the early period after seizure induction
Procedure: Neonatal seizures have been described to enhance the excitability of hippocampal networks as well as cause alterations in long-term network excitability (Jensen et al., 1991; Sanchez et al., 2001; Silverstein and Jensen, 2007; Cornejo et al., 2007), but their acute effects on AMPAR function have not been examined. We compared spontaneous (s) and miniature (m) AMPAR-mediated excitatory postsynaptic currents (EPSCs) in CA1 pyramidal neurons in P10 rat pup hippocampal slices removed 1 hour after hypoxia-induced seizures (hypoxic seizures) and normoxic control rat pups.
Following hypoxic seizures, NBQX, topiramate or GYKI-53773 were administered to the rat pups experiencing hypoxic seizures and hippocampal slices were prepared 1 hour after administration of AMPAR antagonists.

[3] = cited from earlier work
KA-induced seizures = assay: Susceptibility to KA-induced seizures 3 days after hypoxic seizures at P10; assay type: in vivo, rat
Procedure: We have previously reported that enhanced hippocampal excitability observed in rat pups following hypoxia-induced seizures is reflected in the increased susceptibility to KA-induced seizures in these animals at both short (72-96 h) and long (40+ days) intervals following the initial seizures at P10 (Koh et al., 2004).

hypoxia-induced seizures = conditions: post-seizure treatment within the first 48 hours following hypoxic seizures; cited from earlier work
GluR2-lacking AMPARs = assay: Evoked EPSC recording in CA1 pyramidal neurons of hippocampal slices removed 1 hour after hypoxic seizures; assay type: cell-based, rat; conditions: bath application 10 μM; slices 1 hour after in vivo seizures in P10 pup; compared to normoxic controls
Procedure: The age window around P10-12 is characterized by a relative preponderance of Ca^2+ permeable AMPARs in hippocampal and neocortical neurons resulting from a developmentally regulated decrease in GluR2 subunit expression (Sanchez et al., 2001; Durand and Zukin, 1993; Talos et al., 2006b; Kumar et al., 2002). Additionally, hypoxic seizures have been previously associated with a decrease in the expression of GluR2 mRNA and protein 48 hours following the induction of seizures (Sanchez et al., 2001). However the acute alterations in the phosphorylation and function of GluR-2 lacking AMPARs following hypoxic seizures have not been well-characterized. […] Expression of inwardly rectifying AMPAR-mediated currents can result from an increase in phosphorylation of GluR2 S880 and resultant trafficking of the GluR2 subunit out of the synaptic membrane (Chung et al., 2000; Kim et al., 2001; Seidenman et al., 2003). Indeed, GluR2 S880 phosphorylation was increased in the hippocampus of rats experiencing hypoxic seizures as compared to normoxic litter mates, maximal at 12 hours post hypoxia. This seizure-induced phosphorylation of GluR2 S880 may contribute to the subacute changes in GluR2 expression reported previously (Sanchez et al., 2001), as well as increased inward rectification of EPSPs reported above.

neonatal seizures = conditions: cited from earlier work

Row | Structure (SMILES) | GluR1 S845 phosphorylation [1] | GluR1 S831 phosphorylation [1] | GluR1 subunit phosphorylation [1] | activity of CaMKII (CaMKII) | seizure-induced PKA activation (PKA) | seizure-induced increase in PKC activity (PKC) | sEPSC amplitude [2] | sEPSC frequency [2] | acute and subacute enhancement in AMPAR EPSCs [2] | cognitive impairment ([3]; preliminary human studies) | latency to seizures (KA-induced seizures; P13, 20 mg/kg i.p., compared to vehicle treated hypoxic controls) | maximal seizure severity (KA-induced seizures; P13, 20 mg/kg i.p., compared to vehicle-treated pups with prior hypoxic seizures) | enhanced seizure susceptibility (KA-induced seizures; at P13 (72 hours post-hypoxic seizures), 20 mg/kg i.p. following hypoxic seizures, KA 2 mg/kg i.p.) | long-term increase in susceptibility to seizures (hypoxia-induced seizures) | seizure-induced neuronal injury (hypoxia-induced seizures) | eEPSCs in CA1 pyramidal neurons post-hypoxia (GluR2-lacking AMPARs) | infants with neonatal seizures in whom efficacy for acute seizure suppression is lacking (neonatal seizures; first line therapy) | effect on long-term outcome (neonatal seizures; infants with neonatal seizures) | threshold for memory impairment ([3]; healthy volunteers and patients with epilepsy)
1 | CC(=O)N1N=C(c2ccc(N)cc2)c2cc3c(cc2C[C@H]1C)OCO3 [GYKI-53773] | significantly reduced to baseline normoxia levels | significantly reduced to baseline normoxia levels | blocked | reduced to near baseline levels; also recorded: blocked | blocked | significantly reduced; also recorded: blocked | significantly attenuated | attenuation | blocked | less cognitive impairment |  |  |  |  |  |  |  |  | 
2 | NS(=O)(=O)c1cccc2c1c([N+](=O)[O-])cc1nc(O)c(O)nc12 [NBQX] | significantly reduced to baseline normoxia levels | significantly reduced to baseline normoxia levels | blocked | reduced to near baseline levels; also recorded: blocked | reduced significantly; also recorded: blocked | significantly reduced; also recorded: blocked | significantly attenuated | attenuation | blocked |  | significantly longer | significantly lower | significantly attenuated; also recorded: reversal | prevents | prevents |  |  |  | 
3 | CCCC(=O)N[C@@H](Cc1ccc(O)cc1)C(=O)NCCCCNCCCNCCCN [PhTX-433] |  |  |  |  |  |  |  |  |  |  |  |  |  |  |  | blocked the majority of eEPSCs |  |  | 
4 | O=C1NC(=O)C(c2ccccc2)(c2ccccc2)N1 [phenyloin] |  |  |  |  |  |  |  |  |  |  |  |  |  |  |  |  | ~50% | no effect | 
5 | CC1(C)O[C@@H]2[C@@H](CO[C@@]3(COS(N)(=O)=O)OC(C)(C)O[C@@H]23)O1 [topiramate] | significantly reduced to baseline normoxia levels | significantly reduced to baseline normoxia levels | blocked | reduced to near baseline levels; also recorded: blocked | reduced significantly; also recorded: blocked | blocked | significantly attenuated | attenuation | blocked |  |  |  |  | prevents | prevents |  |  |  | lower than lamotrigine and valproate
